Values joined by “and” are separate entries in the source; they are usually repeats but may differ in a detail not shown here. Identical values can stand only once.
Legend:
Assay in all cases: area under concentration-response curve (viability) (AUC (a.u.)); higher = less active
Details in all cases: 48 h
CU-ACC1 = tested on: CU-ACC1
In short: (§1)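 Three adrenocortical carcinoma cell lines in 1,536-well plates received 23 nL of each library compound at 11 concentrations and were read with CellTiter-Glo after 48 h, with 15 minutes at room temperature before measuring luminescence. Vehicle and empty-well controls served for per-plate normalisation. AC50 and area under the curve were extracted from fitted concentration-response curves, discarding all curve classes other than inhibitory or non-responding.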

CU-ACC2 = tested on: CU-ACC2
In short: as §1

NCI-H295R = tested on: NCI-H295R
In short: as §1

Row | SMILES | area under concentration-response curve (CU-ACC1) | area under concentration-response curve (CU-ACC2) | area under concentration-response curve (NCI-H295R)
1 | CCCc1cc(C(N)=S)ccn1 | 587 | 649 | 581
2 | NC/1=N/[C@]2(COC[C@H]2CS1)C3=CC(=CC=C3F)NC(=O)C4=NC=C(F)C=C4 | 499 | 569 | 490
3 | CC1=CC=C2N=C(NC(=O)CS\C3=N\C4=C(\SCC4)C(=O)N3C5=CC=CC=C5)SC2=C1 | 538 | 633 | 558
4 | OC1=C(C=CC=C1)C2=CC=C(C=C2)C3=CSC4=C3C(=C(/C#N)C(=O)N4)/O | 535 | 626 | 570
5 | CC[C@H](C)C(=O)O[C@H]1C[C@@H](C)\C=C2\C=C/[C@H](C)[C@H](CC[C@@H]3C[C@@H](O)CC(=O)O3)[C@@H]12 | 576 | 647 | 576
6 | Oc1cc(O)cc(/C=C/c2ccc(O)c(O)c2)c1 | 519 | 511 | 525
7 | Nc1nc(N)c2nc(-c3cccc(O)c3)c(-c3cccc(O)c3)nc2n1 | 448 | 499 | 483
8 | COc1cc(C(C)C)c(Oc2cnc(NC(CO)CO)nc2N)cc1I | 557 | 661 | 594
9 | COC1=C(F)C(=CC=C1)C/2=C(C)/N(CC3=C(F)C=CC=C3C(F)(F)F)C(=O)N(C[C@H](NCCCC(O)=O)C4=CC=CC=C4)C2=O | 508 | 598 and 615 | 556 and 555
10 | CSCC[C@H](NC(=O)[C@H](Cc1c[nH]c2ccccc12)NC(=O)CCNC(=O)OC(C)(C)C)C(=O)N[C@@H](CC(=O)O)C(=O)N[C@@H](Cc1ccccc1)C(N)=O | 495 | 579 | 545
11 | Cc1nc(NC(=O)N2CCC[C@H]2C(N)=O)sc1-c1csc(C(C)(C)C)n1 | 414 | 445 | 377
12 | COc1ccc(-n2cnc3cc(C(=O)N4CCCCC4)ccc32)cc1 | 502 | 534 | 479
13 | O=C1CCC(N2C(=O)c3ccccc3C2=O)C(=O)N1 (configuration not stated) | 535 | 602 | 538
14 | N[C@@H]1CN(CC12CC2)C3=C(F)C=C4C(=O)\C(=C/N([C@@H]5C[C@@H]5F)C4=C3Cl)C(O)=O | 390 | 426 | 381
15 | Oc1ccc(/C=C/c2cc(O)cc(O)c2)cc1 | 482 | 574 | 547
16 | Nc1cc(c(cc1S(=O)(N)=O)S(N)(=O)=O)C(/Cl)=C(/Cl)Cl | 505 | 590 | 531
17 | COc1ccc([S+](=O)([O-])N2CCc3cccc(-c4ccncc4)c32)cc1 | 576 | 563 | 472
18 | C[C@@H]1CN(Cc2ccc(F)cc2)[C@@H](C)CN1C(=O)c1cc2c(C(=O)C(=O)N(C)C)cn(C)c2cc1Cl | 515 | 634 | 552
19 | C[C@H]1CC2[C@@H]3CCC/4=C/C(=O)/C=C\[C@]4(C)[C@@]3(F)[C@@H](O)C[C@]2(C)[C@@]1(O)C(=O)CO (some centres not stated) | 477 | 572 | 551

Source: the supplement of paper PMC10949913
